Earlier results as cited in patent publication US10940187B2, “Method of treatment of schizophreniform disorder” (Curemark, LLC, priority 2011, dated 2021).
Where two headings read alike, the source gives them in different places.

Columns and labels:
ckr mice = conditions: for spontaneous hyperactivity of ckr mice: dose dependent effects
control mice = conditions: monitored during the dark cycle

Compound: O=C1CCc2ccc(OCCCCN3CCN(c4cccc(Cl)c4Cl)CC3)cc2N1 [aripiprazole]
- locomotor activity, post-hoc Dunnett's test vs vehicle control (ckr mice; 15 mg/kg): did not significantly suppress
- motor activity (ckr mice; 15 mg/kg): increase in motor activity
- locomotor activity, post-hoc Dunnett's test vs vehicle control (ckr mice; 30 mg/kg): significantly suppressed
- motor activity (ckr mice; 30 mg/kg): suppression of motor activity
- overall suppression of motor function (observational) (ckr mice; 30 mg/kg): severe sedation
- locomotor activity of ckr mice (ckr mice; across doses, F6,54_4.626, P_0.001): dose-dependently reduced
- ED50 for initial suppression of locomotor activity (ckr mice; curve fitted to subset of data, doses 1.67 to 10 mg/kg, fit failed to correlate with observed values): 2.695 mg/kg
- spontaneous hyperactivity of ckr mice (ckr mice): dose-dependently suppressed
- locomotor activity, post-hoc Dunnett's test vs vehicle control (ckr mice; doses of 3-10 mg/kg): significantly reduced
- motor activity (ckr mice; lower doses 1.67-10 mg/kg): dose-dependent reduction
- shape of dose-response on hyperactivity (ckr mice; suppression at low doses, little effect at intermediate doses, suppression at high doses): tri-phasic dose-response

Compound: O=C(CCCN1CCC(O)(c2ccc(Cl)cc2)CC1)c1ccc(F)cc1 [haloperidol]
- spontaneous hyperactivity of ckr mice (ckr mice): dose-dependently suppressed
- locomotor activity of control mice (control mice): did not produce a significant suppression

Compound: OCCOCCN1CCN(C2=Nc3ccccc3Sc3ccccc32)CC1 [quetiapine]
- spontaneous hyperactivity of ckr mice (ckr mice): dose-dependently suppressed

Compound: Cc1nc2n(c(=O)c1CCN1CCC(c3noc4cc(F)ccc34)CC1)CCCC2 [risperidone]
- spontaneous hyperactivity of ckr mice (ckr mice): dose-dependently suppressed

Compound: O=C1Cc2cc(CCN3CCN(c4nsc5ccccc45)CC3)c(Cl)cc2N1 [ziprasidone]
- spontaneous hyperactivity of ckr mice (ckr mice): dose-dependently suppressed
